Patent US20190275145A1, “PARTICULATE VACCINE FORMULATIONS” (PDS BIOTECHNOLOGY CORPORATION, priority 2011, published 2019)

Tested on: HPV-positive tumors (TC-1 cells)
Test: Tumor regression efficacy of R-DOTAP/S-DOTAP with HPV-16 E7 peptide antigen (encapsulated or micelles) in TC-1 tumor-bearing mice
Details: mouse, in vivo
Method: Subcutaneous HPV-positive tumors were established in mice by injecting […] TC-1 cells into the flank of each mouse on day 0. On day 6, the mice received a single subcutaneous injection of the formulations in a 0.10 ml injection.
The anti-tumor efficacy of vaccine formulations can be evaluated by evaluating tumor regression. In this example, the vaccine formulation comprises cationic lipid nanoparticles and a peptide antigen assembly in a tubular structure. Furthermore, the exemplary cationic lipid in the present example is R-DOTAP and the exemplary antigen assembly is an HPV-16 E7 micelle.
In this example, H-2Db restricted CTL epitope (amino acid 49-57, RAHYNIVTF [SEQ. ID. NO. 1]) derived from HPV 16 E7 protein was extended to amino acids 43-57, GQAEPDRAHYNIVTF, [SEQ. ID. No. 2]. SEQ. ID. No. 2 was then further extended with the amino acids KSS, and a hydrophobic palmitoyl chain was attached to the elongated peptide.
However, formulating the peptide antigen sequence into a particulate structure comprised only of SEQ. ID. No. 3 allows higher doses of the antigen to be delivered compared to delivery via a cationic lipid adjuvant delivery system. Thus, an effective means of overcoming the weak antigenicity of the peptide can be obtained.
To evaluate this approach, HPV-positive tumors were established as described in Example 3 above. […]

Sequence	antigenicity when formulated and evaluated
GQAEPDRAHYNIVTF (listed as Homo sapiens) [SEQ. ID. No. 2, HPV 16 E7 amino acids 43-57]	weak antigen
RAHYNIVTF (listed as Homo sapiens) [SEQ. ID. No. 1]	weak antigen
